Data published in US8937182B2, “Synthesis for thiazolidinedione compounds” (Metabolic Solutions Development Company, LLC, priority 2010, dated 2015).

Tested on: KKA^Y mice
Test: Glucose, insulin and triglyceride in diabetic KKAy mice treated with exemplary compounds
Format: in vivo
Settings: 93 mg/kg oral for 4 days, blood approx. 18 h after last dose, fasted, Vehicle A 24 (5)
Experimental: (§1) The insulin sensitizing and antidiabetic pharmacology are measured in the KKA^Y mice as previously reported [Hofmann, C., Lornez, K., and Colca, J. R. (1991). Glucose transport deficiency corrected by treatment with the oral anti-hyperglycemic agent Pioglitazone. Endocrinology, 129:1915-1925.] Compounds are formulated in 1% sodium carboxy methylcellulose, and 0.01% tween 20 and dosed daily by oral gavage.
Glucose, Insulin, and Triglyceride in Diabetic KKAy Mice Treated with Exemplary Compounds of the Present Invention.
as §1, with “129:1915-1925.].” for “129:1915-1925.]”
Compounds were formulated by suspension and orally dosed to KKA^Y mice at 93 mg/kg for 4 days. The compounds were first dissolved in DMSO and then placed into aqueous suspension containing 7-10% DMSO, 1% sodium methylcarboxycellulose, and 0.01% Tween 20. On the fifth day, the mice were fasted and blood samples were obtained approximately 18 hours after the last dose. The parameters were measured by standard assay methods. Data are mean and SEM N=6-12 mice.

| Structure (SMILES) | Insulin (Mean/SD) |
| --- | --- |
| O=C1NC(=O)C(Cc2ccc(OCC(=O)c3ccc(F)cc3)cc2)S1 (stereo not drawn) [Compound 2, 5-{4-[2-(4-fluorophenyl)-2-oxoethoxy]benzyl}-1,3-thiazolidine-2,4-dione] | 0.10 |
| O=C1NC(=O)C(Cc2ccc(OCC(=O)c3ccccc3F)cc2)S1 (stereo not drawn) [Compound 3, 5-{4-[2-(2-fluorophenyl)-2-oxoethoxy]benzyl}-1,3-thiazolidine-2,4-dione] | 0.20 |
| O=C1NC(=O)C(Cc2ccc(OCC(=O)c3cccc(F)c3)cc2)S1 (stereo not drawn) [Compound 4, 5-{4-[2-(3-fluorophenyl)-2-oxoethoxy]benzyl}-1,3-thiazolidine-2,4-dione] | 0.24 |
| O=C1NC(=O)C(Cc2ccc(OCC(=O)c3cccc(Cl)c3)cc2)S1 (stereo not drawn) [Compound 7, 5-{4-[2-(3-chlorophenyl)-2-oxoethoxy]benzyl}-1,3-thiazolidine-2,4-dione] | 0.59 |
| O=C1NC(=O)C(Cc2ccc(OCC(=O)c3ccccc3Cl)cc2)S1 (stereo not drawn) [Compound 8, 5-{4-[2-(2-chlorophenyl)-2-oxoethoxy]benzyl}-1,3-thiazolidine-2,4-dione] | 0.47 |
| COc1ccc(C(=O)COc2ccc(CC3SC(=O)NC3=O)cc2)cc1 (stereo not drawn) [Compound 9, 5-{4-[2-(4-methoxyphenyl)-2-oxoethoxy]benzyl}-1,3-thiazolidine-2,4-dione] | 0.76 |
